Test results from US20240174642A1, “HETEROCYCLIC COMPOUNDS CAPABLE OF ACTIVATING STING” (Boehringer Ingelheim International GmbH, priority 2022, published 2024).
Where two headings read alike, the source gives them in different places.

Legend:
[1] = tested on: dog STING (dSTING); assay: Dog differential scanning fluorimetry (DSF) assay, thermal shift of dog STING protein; assay type: binding; settings: 100 μM compound, 3 μM recombinant dog STING (residues 149 to 375), 5× SYPRO Orange, 2% DMSO
Text: The protein used for the biophysical experiments was a recombinant dog STING protein comprising its cytosolic cGAMP binding ectodomain. A codon optimized DNA sequence (for expression in Escherichia coli) encoding amino acid residues 149 to 375 of dog STING was synthesized by GeneArt (Regensburg, Germany) and inserted into a pET17b E. coli expression vector. The protein construct encodes an N-terminal 8× His-tag followed by tobacco etch virus protease (TEV) cleavage site and the above STING gene sequence. The resulting protein sequence for the used dog STING protein (SEQ ID No. 1) is listed below:
For expression of the above recombinant dog STING, the construct was transformed into E. coli BL21 DE3 strain and grown in shake flasks in LB-medium at 15° C. Expression was induced by addition of isopropyl β-D-1-thiogalactopyranoside to a final concentration of 1 mM and cultures shaken overnight. Cell pellets were centrifuged and stored at −70° C. until further use. Protein was purified by cell thawing in lysis buffer (20 mM TRIS-HCl, pH 8, 500 mM NaCl, 1 mM DTT, 0.5 mg/ml lysozyme, Complete Protease Inhibitor (Roche) and DNase (Roche)), followed by metal affinity purification using Ni-NTA resins and elution buffer consisting of 20 mM TRIS-HCl, pH 8, 500 mM NaCl, 1 mM DTT, 300 mM imidazole. Cleavage of the His-Tag using TEV-protease took place during dialysis in size exclusion buffer (20 mM TRIS-HCl, pH 8, 100 mM NaCl, 1 mM DTT) over night. To further purify the target protein a reverse Nickel affinity column was used and the flow through was applied to a size exclusion chromatography. The peak fraction was collected and concentrated to 5 mg/mL.
Dye fluorescence is quenched in aqueous environment and increases upon association of the dye with the hydrophobic parts of the unfolding protein. […] The inflection point of the curve represents the “melting” temperature of the protein (Tm) which is calculated numerically using the Boltzmann equation.
The thermal stability of the dog STING protein was measured in assay buffer containing 20 mM Tris, 150 mM NaCl at pH7.5. The assay uses 384-Well qPCR Plates (Catalog #781358, BRAND), Microseal®‘B’ Adhesive Seals for PCR Plates (Catalog #MSB-1001, BIO-RAD) and was run on a CFX384 Real-Time System (Bio-Rad). A DMSO stock solution of SYPRO orange (SIGMA 55692-500UL) was prepared. Compound stock solutions (10 mM in DMSO) were diluted 1:2 in DMSO to an intermediate compound concentration of 5 mM and then further diluted 1:40 in assay buffer resulting in a compound concentration of 125 μM and 2.5% DMSO. Fluorescent dye stock solution (5000× SYPRO Orange) was then mixed with target protein and buffer to a concentration of 15 μM Protein and 25× SYPRO Orange. 2 μl of this protein-dye-mixture was added to 8 μl compound solution. Final volume was 10 μL. 3-6 well positions were used as negative control (protein with 2% DMSO). The plates were prepared for duplicate measurement and centrifuged for 2 min at 1000 g. In the measurement, 160 cycles of 0.5° C. were used (temperature ramp 15 s/cycle, 15° C. to 95° C.).
Final Assay concentrations for compound characterization were 100 μM compound, 3 μM target protein, 5× SYPRO Orange, and 2% DMSO in 10 μl. All dispensing steps were performed using a HamiltonStar pipetting robot (Hamilton).
Dissociation curves were processed in Bio-Rad CFX Manager. Peak type was set to “negative”. Compound codes for screen were assigned in the plate layout.
Two replicates of TM measurements were averaged, and the standard deviation was calculated. In cases of SD>1.5° C. the measurement was repeated.
The melting point (Tm) obtained for STING protein alone was subtracted from T obtained for protein incubated with ligand to generate ΔTm values.

[2] = tested on: STING; assay: Dog whole blood (dWB) assay, IFNb secretion by ELISA; assay type: cell-based; settings: 4 h incubation at 37° C., % control relative to cGAMP stimulated control, read-out: EC50, cytokine secretion in dog whole blood (dWB) culture system as determined by canine Interferon-beta (IFNb) ELISA
Method: In this assay, freshly collected canine blood is incubated with a STING agonist, and interferon beta levels in the supernatant are quantified by ELISA. […] In accordance with the invention, a combination of a high dDSF and low dWB is especially favorable.
For the detection of STING activation in physiological environment dog whole blood (dWB) was stimulated by the cyclic dinucleotide cGAMP or a test compound. Pathway activity was monitored by measuring the IFNb production.
Compounds were delivered as 10 mM DMSO solution, diluted and transferred by using an Echo acoustic dispenser to the 384well assay plate (Greiner #781182), pre-filled with 10 μl 1× HBSS in each well (10× HBSS (+Ca/+Mg), #14065-049, Gibco). Typically, 8 concentrations were used with the highest concentration at 10 μM in the final assay volume followed by approximately 1:4 dilution steps. DMSO concentration was set to 0.1% in the final assay volume. The 384-well assay plate contained 20 test compounds and DMSO in control and cGAMP standard wells. The dog whole blood was collected as Na-Citrate blood (e.g., 3.8% in Monovettes from Sarstedt) and kept at 4° C. overnight until use in the assay. 80 μl of the whole blood samples were transferred to each well of the 384-well assay plates filled with compound/1×HBSS. Blood plates were kept at room temperature for 60 minutes and continuous shaking with 450 rpm, covered with the lid, but not sealed. A 10× cGAMP assay solution was diluted from a 2 mM stock solution in 1×HBSS immediately before use at room temperature. 10 μl of the 10× cGAMP/HBSS were added to the high control wells, whereas HBSS only was added to all compound and low control wells. After covering assay plates with the lid, blood plates were kept for a 4 h incubation at 37° C. in the incubator, without shaking. For the detection of IFNb in dog plasma the ELISA Kit for Canine Interferon Beta (Biotrend #SEA222Ca) was used. Whole blood assay plates were centrifuged at 1000 g for 10 minutes at 8° C. 40 μl of supernatant was transferred with a 96 well pipetting robotics from the 384 well whole blood plate to the corresponding 96 well ELISA plate, pre-filled with […] assay diluent in each well. Plates were sealed with microplate seals and kept at 4° C. overnight again. ELISA plates were brought to room temperature, followed by a 1 h incubation at 37° C. in the incubator. Detection Reagent A working solution was prepared by diluting Detection Reagent A 1:100 in Assay Reagent A. Liquid was then removed from the 96 well ELISA plate to add 100 μL Detection Reagent A working solution to each well. ELISA plates were covered with the plate sealer and incubated for 1 hour at 37° C. in the incubator. The 1× Wash buffer was prepared by diluting the 30× Wash Buffer Concentrate in H2O. Detection Reagent B working solution was prepared by diluting Detection Reagent B 1:100 in Assay Reagent B. The ELISA plates were washed three times with 350 μl wash buffer and afterwards inverted and blotted against absorbent paper to remove any liquid. 100 μL of Detection Reagent B working solution was added to each well of the ELISA plates, which are then covered with the plate sealer and incubated for 30 minutes at 37° C. in the incubator. After incubation the ELISA assay plates were washed five times with 350 μl wash buffer and were again inverted and blotted against absorbent paper to remove any remaining liquid. 90 μL of TMB Substrate was added to each well of the ELISA plates, which were then covered with the plate sealer and incubated for 15 minutes at 37° C. in the incubator. The reaction was stopped by adding 50 μL stop solution and absorbance was measured at 450 nm immediately.
For data evaluation and calculation, % control calculation of each well was based on the mean of high (cGAMP stimulated control) and mean of low (unstimulated control) controls by using the following standard 4 parameter logistic regression formula: […]

Row | SMILES | Delta TM, interaction with dog STING as determined by DSF (dDSF) [1] [°C] | EC50 ([2]; Canis lupus familiaris) [nM] | EC50 [2] [nM]
1 | Cc1cccc2c(-c3cccc4nn(C)cc34)nn(-c3ccc(N4C[C@@H]5CC[C@H]4C[C@H]5C(=O)O)nc3)c12 (single isomer, unassigned) [Example 7] | 15.5 |  | 
2 | Cc1cccc2c(-c3cccc4nn(C)cc34)nn(-c3ccc(N4C[C@H]5CC[C@@H]4C[C@@H]5C(=O)O)nc3)c12 (single isomer, unassigned) [Example 8] | 24.8 |  | 
3 | Cc1cccc2c(-c3cccc4nn(C)cc34)nn(-c3ccc(N4C[C@@H]5CC[C@H]4C[C@@H]5C(=O)O)nc3)c12 (single isomer, unassigned) [Example 9] | 33.8 | 652 | 
4 | Cc1cccc2c(-c3cccc4nn(C)cc34)nn(-c3ccc(N4C[C@H]5CC[C@@H]4C[C@H]5C(=O)O)nc3)c12 (single isomer, unassigned) [Example 10] | 35.8 | 185 | 
5 | CC(=O)N1C[C@H]2CC[C@@H]1CN2c1ccc(-n2nc(-c3cccc4nn(C)cc34)c3cccc(C)c32)cn1 (single isomer, unassigned) [Example 14] | 23.8 | 2920 | 
6 | CC(=O)N1C[C@@H]2CC[C@H]1CN2c1ccc(-n2nc(-c3cccc4nn(C)cc34)c3cccc(C)c32)cn1 (single isomer, unassigned) [Example 15] | 30.0 | 95.1 | 
7 | Cc1cccc2c(-c3cccc4nn(C)cc34)nn(-c3ccc(N4C[C@@H]5C[C@H]4C[C@H]5C(=O)O)nc3)c12 (single isomer, unassigned) [Example 18] | 31.5 | 519 | 
8 | Cc1cccc2c(-c3cccc4nn(C)cc34)nn(-c3ccc(N4C[C@H]5C[C@@H]4C[C@@H]5C(=O)O)nc3)c12 (single isomer, unassigned) [Example 19] | 33.5 | 278 | 
9 | Cc1cccc2c(-c3cccc4nn(C)cc34)nn(-c3ccc(N4CC[C@H](CC(=O)O)C4)nc3)c12 [Example 1, 2-[(3R)-1-(5-{2″,7-dimethyl-1H,2″H-[3,4″-biindazol]-1-yl}pyridin-2-yl)pyrrolidin-3-yl]acetic acid] |  | 308 | 
10 | Cc1cccc2c(-c3cccc4nn(C)cc34)nn(-c3ccc(N4CC[C@@H](CC(=O)O)C4)nc3)c12 [Example 2, 2-[(3S)-1-(5-{2″,7-dimethyl-1H,2″H-[3,4″-biindazol]-1-yl}pyridin-2-yl)pyrrolidin-3-yl]acetic acid] | 33.3 | 212 | 
11 | Cc1cccc2c(-c3cccc4nn(C)cc34)nn(-c3ccc(N4CCOC(CC(=O)O)C4)nc3)c12 (stereo not drawn) [Example 3, 2-[4-(5-{2′,7-dimethyl-1H,2′H-[3,4′-biindazol]-1-yl}pyridin-2-yl)morpholin-2-yl]acetic acid] | 26.1 | 3060 | 
12 | Cc1cccc2c(-c3cccc4nn(C)cc34)nn(-c3ccc(N4CC5CC4CC5C(=O)O)nc3)c12 (stereo not drawn) [Example 4, 2-(5-{2″,7-dimethyl-1H,2″H-[3,4″-biindazol]-1-yl}pyridin-2-yl)-2-azabicyclo[2.2.1]heptane-5-carboxylic acid] | 29.0 | 704 | 
13 | Cc1cccc2c(-c3cccc4nn(C)cc34)nn(-c3ccc(N4CC5CCC4CC5C(=O)O)nc3)c12 (stereo not drawn) [Example 6, 2-(5-{2′,7-dimethyl-1H,2′H-[3,4′-biindazol]-1-yl}pyridin-2-yl)-2-azabicyclo[2.2.2]octane-5-carboxylic acid] | 34.0 | 417 | 
14 | CC(=O)N1C[C@H]2C[C@@H]1CN2c1ccc(-n2nc(-c3cccc4nn(C)cc34)c3cccc(C)c32)cn1 [Example 11, 1-[(1R,4R)-5-(5-{2″,7-dimethyl-1H,2″H-[3,4″-biindazol]-1-yl}pyridin-2-yl)-2,5-diazabicyclo[2.2.1]heptan-2-yl]ethan-1-one] | 28.3 |  | 620
15 | CC(=O)N1CC2CCC1CN2c1ccc(-n2nc(-c3cccc4nn(C)cc34)c3cccc(C)c32)cn1 (stereo not drawn) [Example 13, 1-[5-(5-{2′,7-dimethyl-1H,2′H-[3,4′-biindazol]-1-yl}pyridin-2-yl)-2,5-diazabicyclo[2.2.2]octan-2-yl]ethan-1-one] | 28.3 | 282 | 
